Common to all, as to experiment: growth of human tumour cells (NCI), 48 h
For test [1], the system named is U251 CNS.
Test [2] relates to IGROV1 ovarian.
Test [3] has as its system 786-0 renal.
Test [4] deals with UACC-62 melanoma.
Test [5] deals with SK-MEL-28 melanoma.
The subject of test [6] is ACHN renal.
Test [7] deals with UACC-257 melanoma.
For test [8], the system named is MALME-3M melanoma.
In test [9] the test system is OVCAR-3 ovarian.
The subject of test [10] is OVCAR-5 ovarian.
Test [11] concerns HL-60(TB) leukemia.
Test [12] relates to A498 renal.
The test system of test [13] is NCI-H226 lung.
Test [14] concerns SNB-19 CNS.
In test [15] the test system is SK-MEL-2 melanoma.
In test [16] the test system is K-562 leukemia.
The test system of test [17] is MDA-MB-231 breast.
Test [18] deals with MOLT-4 leukemia.
The subject of test [19] is CCRF-CEM leukemia.
Test [20] deals with MCF7 breast.

Results on eight compounds are retold here after PubChem BioAssay (NCI).

SMILES strings stand for the structures.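 48-hour exposure; five concentrations; linearly interpolated endpoints. TGI denotes the concentration required for complete inhibition of growth.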

Turning to `Cc1cc(S(=O)(=O)NC2=NCCCN2)c(S)cc1Cl`, the TGI is more than 100 µM in test [1]; more than 100 µM in [2]; 56.4 µM in [3]; 90.3 µM in [4]; more than 100 µM in test [5]; more than 100 µM in [6]. For the same compound, the TGI in test [7] is more than 100 µM; in test [8] it was 72.4 µM; in test [9], more than 100 µM; in test [10], more than 100 µM; in [11] it was 45.9 µM; in [12] it was more than 100 µM. Moreover, the TGI was 88.2 µM in [13]; more than 100 µM in [14]; 77.7 µM in test [15]; 75.9 µM in [16]; more than 100 µM in test [17].

Take `COc1ccc(NC(=O)c2oc3cc(O)ccc3c(=O)c2C)c([N+](=O)[O-])c1`: the TGI in test [1], in test [2], in [3], in [4], in [5] and in test [6] was more than 100 µM each time. The TGI in [7], in [8], in test [9], in [10], in test [11] and in test [12] was more than 100 µM each time. In addition, the TGI in test [13], in test [18], in test [19], in [14], in test [15] and in test [16] was more than 100 µM in each case.

As to `COC(=O)C(=O)C(C(C)=O)C(=O)NCc1ccccc1` (stereo unspecified), the TGI in test [1], in test [2], in test [3], in [4], in [5] and in [6] was more than 100 µM in each case. The TGI in [7], in test [8], in test [9], in test [10], in test [11] and in [12] was more than 100 µM in each case. Besides, the TGI in [13], in test [18], in test [19], in [14], in test [15] and in test [16] was more than 100 µM throughout.

Take `CCCCCN(CCCCC)C(=O)[C@H](CCC(=O)O)NC(=O)c1cc2ccccc2[nH]1`: the TGI in test [1] was more than 100 µM; in [2], more than 100 µM; in test [3], more than 100 µM; in [4] it was more than 100 µM; in test [5], 96.4 µM; in test [6] it was more than 100 µM. Besides, the TGI in [7] was more than 100 µM; in test [8], more than 100 µM; in [9], more than 100 µM; in test [10], more than 100 µM; in [11], 61.8 µM; in test [12], more than 100 µM. The TGI in test [13] was more than 100 µM; in test [18], 64.4 µM; in [19], more than 100 µM; in [14], more than 100 µM; in [15], more than 100 µM; in [16] it was more than 100 µM.

As for `NCCCC(N=Cc1nc(-c2ccccc2)oc1O)C(=O)O` (stereo unspecified), the TGI in test [1], in test [2], in [3], in test [4], in [5] and in [6] was more than 100 µM each time. The TGI in test [7], in test [8], in test [9], in [10], in test [11] and in [12] was more than 100 µM each time. In addition, the TGI in test [13], in [18], in [19], in test [14], in test [15] and in [16] was more than 100 µM in each case.

`O=C(/C=C/c1ccccc1)c1cc(C(=O)/C=C/c2ccccc2)c(O)cc1O`: the TGI in test [2], in test [3], in test [20], in test [4], in test [5] and in [6] was more than 100 µM in each case. The TGI was more than 100 µM in test [7]; more than 100 µM in test [8]; more than 100 µM in [10]; more than 100 µM in test [11]; 90.7 µM in test [12]; more than 100 µM in [18]. The TGI in [14] and in [15] was more than 100 µM in each case.

As to `O=C(O/N=c1/ccc(=O)/c(=N\OC(=O)c2ccccc2)c1=O)c1ccccc1`, the TGI in test [1], in test [2], in test [3], in [20], in [5] and in test [6] was more than 100 µM throughout. In addition, the TGI is more than 100 µM in test [9]; more than 100 µM in test [10]; 52.1 µM in [11]; more than 100 µM in [12]; more than 100 µM in [13]; more than 100 µM in test [18]. The values for the TGI in test [19], in test [14] and in [16] were 89.7 µM, more than 100 µM and more than 100 µM, respectively.

With `CCOC(=O)C1=C(O)C(=O)c2ccoc2C1=O`, the TGI in [1], in test [2], in test [3], in [4], in test [5] and in test [6] was more than 100 µM throughout. In addition, the TGI in test [7], in test [8], in [9], in test [10], in test [11] and in [12] was more than 100 µM each time. For the same compound, the TGI in test [13], in [18], in [19], in test [14], in [15] and in test [16] was more than 100 µM in each case.
